Experimental findings from ChEMBL document CHEMBL5579809, “Exploration of bromodomain ligand-linker conjugation sites for efficient CBP/p300 heterobifunctional degrader activity” (Bioorg Med Chem Lett, 2024) are described below.

Activity calls are given as the source filed them. The calls are words filed in the database; no cut-off is given here.

The first assay concerns the target T1, Protein cereblon/Histone acetyltransferase p300 (Homo sapiens) (UniProt Q09472+Q96SW2). Nature of the assay: PROTAC activity at CRBN/HiBiT-tagged p300 in human HAP1 cells assessed as total cumulative degradation by measuring AUC at 0.1 nM measured over 24 hrs by luminescence based analysis. The format is cell-based.
Settings: not given
For the compound `CNC(=O)N1CCc2c(c(N3CCCc4cc(-c5cnn(CC(=O)NCCOCCOCCOCCOCCNc6ccc7c(c6)C(=O)N(C6CCC(=O)NC6=O)C7=O)c5)c(C(F)F)cc43)nn2C2CCOCC2)C1` (centres undefined), the AUC amounted to 26.8.

The target in the next assay is T2, Protein cereblon/CREB-binding protein (Homo sapiens) (UniProt Q92793+Q96SW2). The assay can be described thus: PROTAC activity at CRBN/HiBiT-tagged CBP in human HAP1 cells assessed as total cumulative degradation by measuring AUC at 0.1 nM measured over 24 hrs by luminescence based analysis.
T2 sequence (Q92793 2-2442 limits assumed): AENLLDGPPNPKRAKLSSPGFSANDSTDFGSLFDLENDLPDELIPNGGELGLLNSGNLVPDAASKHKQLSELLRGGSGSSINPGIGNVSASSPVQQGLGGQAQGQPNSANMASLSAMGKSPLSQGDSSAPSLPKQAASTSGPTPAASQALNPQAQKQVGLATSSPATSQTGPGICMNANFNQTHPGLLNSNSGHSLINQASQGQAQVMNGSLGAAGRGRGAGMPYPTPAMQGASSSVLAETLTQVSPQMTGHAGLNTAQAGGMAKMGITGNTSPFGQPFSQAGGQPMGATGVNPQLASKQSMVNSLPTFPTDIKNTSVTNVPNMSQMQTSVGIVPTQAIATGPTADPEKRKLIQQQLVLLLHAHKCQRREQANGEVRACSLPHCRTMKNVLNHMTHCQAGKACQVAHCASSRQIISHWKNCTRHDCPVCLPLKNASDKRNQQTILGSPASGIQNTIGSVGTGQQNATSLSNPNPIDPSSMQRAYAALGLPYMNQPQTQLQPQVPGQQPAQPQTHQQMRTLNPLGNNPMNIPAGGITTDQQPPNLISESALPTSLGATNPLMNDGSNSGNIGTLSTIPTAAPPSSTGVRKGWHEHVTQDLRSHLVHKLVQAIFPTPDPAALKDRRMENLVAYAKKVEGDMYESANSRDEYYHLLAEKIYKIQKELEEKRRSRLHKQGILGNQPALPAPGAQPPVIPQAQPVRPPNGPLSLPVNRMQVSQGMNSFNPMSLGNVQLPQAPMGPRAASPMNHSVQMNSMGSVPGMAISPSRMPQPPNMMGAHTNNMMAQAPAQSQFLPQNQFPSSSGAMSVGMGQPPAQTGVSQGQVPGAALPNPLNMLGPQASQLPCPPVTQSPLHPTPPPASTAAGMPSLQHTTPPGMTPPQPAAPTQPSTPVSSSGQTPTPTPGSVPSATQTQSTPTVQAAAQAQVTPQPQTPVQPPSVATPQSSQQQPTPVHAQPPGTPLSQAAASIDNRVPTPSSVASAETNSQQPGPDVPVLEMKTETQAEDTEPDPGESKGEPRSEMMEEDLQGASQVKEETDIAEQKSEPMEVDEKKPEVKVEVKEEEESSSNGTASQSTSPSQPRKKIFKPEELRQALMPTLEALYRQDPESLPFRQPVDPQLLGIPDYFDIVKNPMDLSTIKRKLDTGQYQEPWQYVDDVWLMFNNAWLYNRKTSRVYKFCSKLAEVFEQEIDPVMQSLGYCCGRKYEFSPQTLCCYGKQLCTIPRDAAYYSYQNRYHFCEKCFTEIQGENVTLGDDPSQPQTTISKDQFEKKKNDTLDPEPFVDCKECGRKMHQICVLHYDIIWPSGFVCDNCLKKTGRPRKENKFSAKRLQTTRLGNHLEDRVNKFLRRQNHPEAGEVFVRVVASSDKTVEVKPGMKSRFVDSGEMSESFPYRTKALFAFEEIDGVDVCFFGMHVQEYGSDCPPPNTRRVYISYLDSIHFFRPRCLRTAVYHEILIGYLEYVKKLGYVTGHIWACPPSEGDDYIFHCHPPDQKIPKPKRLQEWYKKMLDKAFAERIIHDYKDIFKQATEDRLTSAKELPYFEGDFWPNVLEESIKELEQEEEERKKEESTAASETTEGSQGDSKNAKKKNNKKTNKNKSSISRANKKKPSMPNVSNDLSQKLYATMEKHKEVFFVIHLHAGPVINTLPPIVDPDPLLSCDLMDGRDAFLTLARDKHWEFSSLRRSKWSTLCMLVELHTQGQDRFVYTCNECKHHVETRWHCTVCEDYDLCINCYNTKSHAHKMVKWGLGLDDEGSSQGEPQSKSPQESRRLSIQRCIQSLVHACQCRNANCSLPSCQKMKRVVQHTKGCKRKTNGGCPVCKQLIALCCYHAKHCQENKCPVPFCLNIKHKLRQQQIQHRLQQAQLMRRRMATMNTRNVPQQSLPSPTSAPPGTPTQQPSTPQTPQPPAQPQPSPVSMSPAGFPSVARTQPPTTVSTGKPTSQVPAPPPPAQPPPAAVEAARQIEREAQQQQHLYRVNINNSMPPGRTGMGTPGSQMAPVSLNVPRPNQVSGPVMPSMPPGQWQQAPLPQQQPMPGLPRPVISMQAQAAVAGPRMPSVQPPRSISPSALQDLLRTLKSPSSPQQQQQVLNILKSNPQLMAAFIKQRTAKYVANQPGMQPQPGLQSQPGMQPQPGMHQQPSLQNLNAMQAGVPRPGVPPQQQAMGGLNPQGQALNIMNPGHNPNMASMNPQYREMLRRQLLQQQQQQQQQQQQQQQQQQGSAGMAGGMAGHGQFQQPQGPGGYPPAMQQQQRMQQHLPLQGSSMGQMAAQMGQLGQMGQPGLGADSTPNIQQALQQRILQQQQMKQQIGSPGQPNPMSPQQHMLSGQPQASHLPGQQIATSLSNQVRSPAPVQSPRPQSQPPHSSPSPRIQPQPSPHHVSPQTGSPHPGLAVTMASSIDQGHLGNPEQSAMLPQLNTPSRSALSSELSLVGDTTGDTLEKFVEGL
T2 sequence (Q96SW2 whole entry partner): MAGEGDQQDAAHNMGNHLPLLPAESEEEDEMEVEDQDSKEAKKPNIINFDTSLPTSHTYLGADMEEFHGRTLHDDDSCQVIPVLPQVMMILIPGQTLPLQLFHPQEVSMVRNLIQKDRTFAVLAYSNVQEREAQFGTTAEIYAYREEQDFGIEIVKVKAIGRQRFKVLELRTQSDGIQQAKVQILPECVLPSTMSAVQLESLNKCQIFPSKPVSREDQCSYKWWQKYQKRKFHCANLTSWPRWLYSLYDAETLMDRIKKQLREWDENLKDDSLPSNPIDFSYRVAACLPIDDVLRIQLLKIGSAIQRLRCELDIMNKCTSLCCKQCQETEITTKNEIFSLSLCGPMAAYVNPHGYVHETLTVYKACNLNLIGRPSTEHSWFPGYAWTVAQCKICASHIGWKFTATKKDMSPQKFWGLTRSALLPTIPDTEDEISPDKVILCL
Settings: not given
The format is cell-based.
For `CNC(=O)N1CCc2c(c(N3CCCc4cc(-c5cnn(CC(=O)NCCOCCOCCOCCOCCNc6ccc7c(c6)C(=O)N(C6CCC(=O)NC6=O)C7=O)c5)c(C(F)F)cc43)nn2C2CCOCC2)C1` (centres undefined), the AUC stood at 23.4.

For another assay, the target named is T1, Protein cereblon/Histone acetyltransferase p300 (Homo sapiens). The assay can be described thus: PROTAC activity at CRBN/HiBiT-tagged p300 in human HAP1 cells assessed as total cumulative degradation by measuring AUC at 10 nM measured over 24 hrs by luminescence based analysis. Format: cell-based.
Settings: not given
For `CNC(=O)N1CCc2c(c(N3CCCc4cc(-c5cnn(CC(=O)NCCOCCOCCOCCOCCNc6ccc7c(c6)C(=O)N(C6CCC(=O)NC6=O)C7=O)c5)c(C(F)F)cc43)nn2C2CCOCC2)C1` (centres undefined), the AUC came to 21.3.

A further assay shares this target. Nature of the assay: PROTAC activity at CRBN/HiBiT-tagged p300 in human HAP1 cells assessed as induction of p300 degradation by measuring degradation rate at 1000 nM measured over 24 hrs by luminescence based analysis. Format: cell-based.
Settings: not given
As to `CNC(=O)N1CCc2c(c(N3CCCc4cc(-c5cnn(CC(=O)NCCOCCOCCOCCOCCNc6ccc7c(c6)C(=O)N(C6CCC(=O)NC6=O)C7=O)c5)c(C(F)F)cc43)nn2C2CCOCC2)C1` (centres undefined), the Activity came to 0.11 h⁻¹.

The next assay addresses T2, Protein cereblon/CREB-binding protein (Homo sapiens). Nature of the assay: Binding affinity to recombinant CRBN/CBP bromodomain (unknown origin) assessed as ternary complex formation at 10 to 100 nM by Alphascreen-based proximity assay. The settings on record: dose 10-100 nM. Format: protein assay.
As for `CNC(=O)N1CCc2c(c(N3CCCc4cc(-c5cnn(CC(=O)NCCOCCOCCOCCOCCNc6ccc7c(c6)C(=O)N(C6CCC(=O)NC6=O)C7=O)c5)c(C(F)F)cc43)nn2C2CCOCC2)C1` (centres undefined), the outcome was Active.

A further assay shares this target. Nature of the assay: PROTAC activity at CRBN/HiBiT-tagged CBP in human HAP1 cells assessed as induction of CBP degradation by measuring degradation rate at 100 nM measured over 24 hrs by luminescence based analysis. Format: cell-based.
Settings: not given
`CNC(=O)N1CCc2c(c(N3CCCc4cc(-c5cnn(CC(=O)NCCOCCOCCOCCOCCNc6ccc7c(c6)C(=O)N(C6CCC(=O)NC6=O)C7=O)c5)c(C(F)F)cc43)nn2C2CCOCC2)C1` (centres undefined): the Activity came to 0.11 h⁻¹.

The target of a further assay is Protein cereblon/Bromodomain-containing protein 4 (Homo sapiens) (UniProt O60885+Q96SW2). Nature of the assay: PROTAC activity at CRBN/HiBiT-tagged BRD4 in human HAP1 cells assessed as induction of BRD4 degradation measured over 24 hrs by luminescence based analysis. Format: cell-based.
Sequence of Protein cereblon/Bromodomain-containing protein 4 (Homo sapiens) (Q96SW2 whole entry, looked up, other chains not shown): as the sequence (Q96SW2 whole entry partner) above
Settings: not given
For the compound `CNC(=O)N1CCc2c(c(N3CCCc4cc(-c5cnn(CC(=O)NCCOCCOCCOCCOCCNc6ccc7c(c6)C(=O)N(C6CCC(=O)NC6=O)C7=O)c5)c(C(F)F)cc43)nn2C2CCOCC2)C1` (centres undefined), the outcome was inactive.

In a further assay the target is T2, Protein cereblon/CREB-binding protein (Homo sapiens). The assay can be described thus: PROTAC activity at CRBN/HiBiT-tagged CBP in human HAP1 cells assessed as total cumulative degradation by measuring AUC at 10 nM measured over 24 hrs by luminescence based analysis. Format: cell-based.
Settings: not given
Turning to `CNC(=O)N1CCc2c(c(N3CCCc4cc(-c5cnn(CC(=O)NCCOCCOCCOCCOCCNc6ccc7c(c6)C(=O)N(C6CCC(=O)NC6=O)C7=O)c5)c(C(F)F)cc43)nn2C2CCOCC2)C1` (centres undefined), the AUC worked out at 22.2.

For the next assay, the target named is T1, Protein cereblon/Histone acetyltransferase p300 (Homo sapiens). Nature of the assay: Binding affinity to recombinant CRBN/p300 bromodomain (unknown origin) assessed as ternary complex formation at 10 to 100 nM by Alphascreen-based proximity assay. Format: protein assay. As to conditions: dose 10-100 nM.
Regarding `CNC(=O)N1CCc2c(c(N3CCCc4cc(-c5cnn(CC(=O)NCCOCCOCCOCCOCCNc6ccc7c(c6)C(=O)N(C6CCC(=O)NC6=O)C7=O)c5)c(C(F)F)cc43)nn2C2CCOCC2)C1` (centres undefined), the result was Active.

A further assay shares this target. The assay can be described thus: PROTAC activity at CRBN/HiBiT-tagged p300 in human HAP1 cells assessed as induction of p300 degradation by measuring maximal efficacy at 100 nM measured over 24 hrs by luminescence based analysis relative to control. The format is cell-based.
Settings: not given
As to `CNC(=O)N1CCc2c(c(N3CCCc4cc(-c5cnn(CC(=O)NCCOCCOCCOCCOCCNc6ccc7c(c6)C(=O)N(C6CCC(=O)NC6=O)C7=O)c5)c(C(F)F)cc43)nn2C2CCOCC2)C1` (centres undefined), the Emax came out at 51%.

The next assay has the same target. The assay can be described thus: PROTAC activity at CRBN/HiBiT-tagged p300 in human HAP1 cells assessed as induction of p300 degradation by measuring degradation rate at 100 nM measured over 24 hrs by luminescence based analysis. The format is cell-based.
Settings: not given
Take `CNC(=O)N1CCc2c(c(N3CCCc4cc(-c5cnn(CC(=O)NCCOCCOCCOCCOCCNc6ccc7c(c6)C(=O)N(C6CCC(=O)NC6=O)C7=O)c5)c(C(F)F)cc43)nn2C2CCOCC2)C1` (centres undefined): the Activity was 0.11 h⁻¹.

The target is the same in the next assay. Nature of the assay: PROTAC activity at CRBN/HiBiT-tagged p300 in human HAP1 cells assessed as total cumulative degradation by measuring AUC at 1 nM measured over 24 hrs by luminescence based analysis. Format: cell-based.
Settings: not given
Turning to `CNC(=O)N1CCc2c(c(N3CCCc4cc(-c5cnn(CC(=O)NCCOCCOCCOCCOCCNc6ccc7c(c6)C(=O)N(C6CCC(=O)NC6=O)C7=O)c5)c(C(F)F)cc43)nn2C2CCOCC2)C1` (centres undefined), the AUC was 25.8.

Another assay concerns the target T2, Protein cereblon/CREB-binding protein (Homo sapiens). The assay can be described thus: PROTAC activity at CRBN/HiBiT-tagged CBP in human HAP1 cells assessed as induction of CBP degradation by measuring maximal efficacy at 100 nM measured over 24 hrs by luminescence based analysis relative to control.
Settings: not given
The format is cell-based.
`CNC(=O)N1CCc2c(c(N3CCCc4cc(-c5cnn(CC(=O)NCCOCCOCCOCCOCCNc6ccc7c(c6)C(=O)N(C6CCC(=O)NC6=O)C7=O)c5)c(C(F)F)cc43)nn2C2CCOCC2)C1` (centres undefined): the Emax stood at 42%.

For another assay the target is unchanged. Nature of the assay: PROTAC activity at CRBN/HiBiT-tagged CBP in human HAP1 cells assessed as induction of CBP degradation by measuring maximal efficacy at 1000 nM measured over 24 hrs by luminescence based analysis relative to control. Format: cell-based.
Settings: not given
Consider `CNC(=O)N1CCc2c(c(N3CCCc4cc(-c5cnn(CC(=O)NCCOCCOCCOCCOCCNc6ccc7c(c6)C(=O)N(C6CCC(=O)NC6=O)C7=O)c5)c(C(F)F)cc43)nn2C2CCOCC2)C1` (centres undefined), for which the maximum response (Emax) came to 42%.
